The record followed here is ChEMBL document CHEMBL5724914, “Linking interpersonal differences in gut microbiota composition and drug biotransformation activity” (2024).

Data set [1] is described as follows: The drug is tested on Z-026 corresponding to metagenome with ENA study accession number: PRJEB37062 and ENA sample accession number: ERS12561825 for biotransformation under anaerobic condition. The drug concentrations were measured over 9 timepoints collected between 0 and 24 hours of incubation by liquid-chromatography-coupled mass spectrometry (LC–MS). The note with it: 2 µM.

The nature of data set [2]: The drug is tested on Z-019 corresponding to rat gut metagenome with ENA study accession number: PRJEB37062 and ENA sample accession number: ERS12561818 for biotransformation under anaerobic condition. The drug concentrations were measured over 9 timepoints collected between 0 and 24 hours of incubation by liquid-chromatography-coupled mass spectrometry (LC–MS). The note with it: 2 µM.

A short description of data set [3]: The drug is tested on Z-017 corresponding to mouse gut metagenome with ENA study accession number: PRJEB37062 and ENA sample accession number: ERS12561816 for biotransformation under anaerobic condition. The drug concentrations were measured over 9 timepoints collected between 0 and 24 hours of incubation by liquid-chromatography-coupled mass spectrometry (LC–MS). The following applies: 2 µM.

A short description of data set [4]: The drug is tested on Z-014 corresponding to rat gut metagenome with ENA study accession number: PRJEB37062 and ENA sample accession number: ERS12561814 for biotransformation under anaerobic condition. The drug concentrations were measured over 9 timepoints collected between 0 and 24 hours of incubation by liquid-chromatography-coupled mass spectrometry (LC–MS). The following applies: 2 µM.

Data set [5] can be described thus: The drug is tested on Z-013 corresponding to rabbit gut metagenome with ENA study accession number: PRJEB37062 and ENA sample accession number: ERS12561813 for biotransformation under anaerobic condition. The drug concentrations were measured over 9 timepoints collected between 0 and 24 hours of incubation by liquid-chromatography-coupled mass spectrometry (LC–MS). The note with it: 2 µM.

A short description of data set [6]: The drug is tested on Z-006 corresponding to mouse gut metagenome with ENA study accession number: PRJEB37062 and ENA sample accession number: ERS12561806 for biotransformation under anaerobic condition. The drug concentrations were measured over 9 timepoints collected between 0 and 24 hours of incubation by liquid-chromatography-coupled mass spectrometry (LC–MS). The note with it: 2 µM.

Data set [7] can be described thus: The drug is tested on WLS-240 corresponding to human gut metagenome with ENA study accession number: PRJEB37062 and ENA sample accession number: ERS12561773 for biotransformation under anaerobic condition. The drug concentrations were measured over 9 timepoints collected between 0 and 24 hours of incubation by liquid-chromatography-coupled mass spectrometry (LC–MS). The note with it: 2 µM.

A short description of data set [8]: The drug is tested on WLS-170 corresponding to human gut metagenome with ENA study accession number: PRJEB37062 and ENA sample accession number: ERS12561762 for biotransformation under anaerobic condition. The drug concentrations were measured over 9 timepoints collected between 0 and 24 hours of incubation by liquid-chromatography-coupled mass spectrometry (LC–MS). The note with it: 2 µM.

Data set [9] can be described thus: The drug is tested on WLS-077 corresponding to human gut metagenome with ENA study accession number: PRJEB37062 and ENA sample accession number: ERS12561750 for biotransformation under anaerobic condition. The drug concentrations were measured over 9 timepoints collected between 0 and 24 hours of incubation by liquid-chromatography-coupled mass spectrometry (LC–MS). The note with it: 2 µM.

Data set [10] is described as follows: The drug is tested on WLS-027 corresponding to human gut metagenome with ENA study accession number: PRJEB37062 and ENA sample accession number: ERS12561744 for biotransformation under anaerobic condition. The drug concentrations were measured over 9 timepoints collected between 0 and 24 hours of incubation by liquid-chromatography-coupled mass spectrometry (LC–MS). The note with it: 2 µM.

The conditions of data set [11]: human gut metagenome, 24 h, 2 µM.
For data set [12] the following is noted: human gut metagenome, 24 h, 2 µM. This is another data set of the same source.
For data set [13] the following is noted: human gut metagenome, 24 h, 2 µM. This is another data set of the same source.
The conditions of data set [14]: human gut metagenome, 24 h, 2 µM. This is another data set of the same source.
The conditions of data set [15]: human gut metagenome, 24 h, 2 µM. The source holds these as a separate data set.
For data set [16] the following is noted: human gut metagenome, 24 h, 2 µM. This is another data set of the same source.
The conditions of data set [17]: human gut metagenome, 24 h, 2 µM. The source holds these as a separate data set.
For data set [18] the following is noted: human gut metagenome, 24 h, 2 µM. The source holds these as a separate data set.
The conditions of data set [19]: human gut metagenome, 24 h, 2 µM. The source holds these as a separate data set.
For data set [20] the following is noted: human gut metagenome, 24 h, 2 µM. The source holds these as a separate data set.
Further: call rule not given here.

Regarding `CN1CCc2c(c3ccccc3n2Cc2ccccc2)C1.CN1CCc2c(c3ccccc3n2Cc2ccccc2)C1.O=S(=O)(O)c1cccc2c(S(=O)(=O)O)cccc12`, the “Bacterial Biotransformation” value in data set [1], in data set [2], in data set [3], in data set [4], in data set [5] and in data set [6] was “Compound NOT metabolized” each time. Besides, the “Bacterial Biotransformation” value is “Compound NOT metabolized” in data set [7]; “Compound metabolized” in data set [8]; “Compound NOT metabolized” in [9]; “Compound metabolized” in data set [10]; “Compound NOT metabolized” in [11]; “Compound NOT metabolized” in data set [12]. Also, the “Bacterial Biotransformation” value in data set [13], in data set [14], in [15], in data set [16], in data set [17] and in [18] was “Compound NOT metabolized” throughout. In addition, the results for the “Bacterial Biotransformation” value in [19] and in data set [20] were “Compound metabolized” and “Compound NOT metabolized”, respectively.
Consider `COc1cc2nc(N(C)CCCNC(=O)C3CCCO3)nc(N)c2cc1OC` (stereo not given) [ALFUZOSIN], for which the “Bacterial Biotransformation” value in data set [1], in data set [2], in data set [3], in data set [4], in data set [5] and in data set [6] was “Compound NOT metabolized” in each case. Besides, the “Bacterial Biotransformation” value is “Compound metabolized” in [7]; “Compound metabolized” in [8]; “Compound NOT metabolized” in data set [9]; “Compound NOT metabolized” in data set [10]; “Compound NOT metabolized” in [11]; “Compound metabolized” in data set [12]. Besides, the “Bacterial Biotransformation” value in data set [13] is recorded as “Compound metabolized”; in data set [14], “Compound metabolized”; in data set [15], “Compound metabolized”; in [16], “Compound metabolized”; in data set [17] it was “Compound metabolized”; in data set [18], “Compound NOT metabolized”. Further, the “Bacterial Biotransformation” value in [19] and in [20] was “Compound metabolized” in each case.
Regarding `NC12CC3CC(CC(C3)C1)C2` [AMANTADINE], the “Bacterial Biotransformation” value in [1], in data set [2], in data set [3], in data set [4], in [5] and in data set [6] was “Compound NOT metabolized” each time. Besides, the “Bacterial Biotransformation” value in data set [7] is “Compound NOT metabolized”; in [8] it was “Compound metabolized”; in [9], “Compound NOT metabolized”; in data set [10], “Compound NOT metabolized”; in data set [11] it was “Compound NOT metabolized”; in [12], “Compound NOT metabolized”. Further, the “Bacterial Biotransformation” value in data set [13], in [14], in data set [15], in data set [16], in data set [17] and in data set [18] was “Compound NOT metabolized” in each case. For the same compound, the “Bacterial Biotransformation” value in data set [19] and in data set [20] was “Compound NOT metabolized” in each case.
As to `CC(C)(C#N)c1cc(Cn2cncn2)cc(C(C)(C)C#N)c1` [ANASTROZOLE], the “Bacterial Biotransformation” value in data set [1], in [2], in data set [3], in [4], in [5] and in [6] was “Compound NOT metabolized” in each case. Further, the “Bacterial Biotransformation” value in data set [7] is “Compound metabolized”; in data set [8], “Compound metabolized”; in data set [9] it was “Compound NOT metabolized”; in data set [10], “Compound NOT metabolized”; in [11] it was “Compound NOT metabolized”; in [12], “Compound NOT metabolized”. Further, the “Bacterial Biotransformation” value in data set [13] is recorded as “Compound NOT metabolized”; in data set [14], “Compound NOT metabolized”; in data set [15], “Compound metabolized”; in data set [16] it was “Compound metabolized”; in data set [17], “Compound NOT metabolized”; in data set [18] it was “Compound NOT metabolized”. The “Bacterial Biotransformation” value in data set [19] is “Compound metabolized”; in data set [20], “Compound NOT metabolized”.
For the compound `O=P(O)(O)O.c1ccc(CN(CC2=NCCN2)c2ccccc2)cc1` [ANTAZOLINE PHOSPHATE], the “Bacterial Biotransformation” value in [1], in data set [2], in [3], in data set [4], in data set [5] and in data set [6] was “Compound NOT metabolized” throughout. In addition, the “Bacterial Biotransformation” value in data set [7] is reported as “Compound metabolized”; in data set [8] it was “Compound metabolized”; in data set [9], “Compound NOT metabolized”; in [10] it was “Compound NOT metabolized”; in [11], “Compound NOT metabolized”; in [12], “Compound NOT metabolized”. In addition, the “Bacterial Biotransformation” value in data set [13] is recorded as “Compound NOT metabolized”; in data set [14], “Compound NOT metabolized”; in [15], “Compound metabolized”; in [16], “Compound metabolized”; in data set [17], “Compound metabolized”; in data set [18], “Compound NOT metabolized”. The “Bacterial Biotransformation” value in [19] and in [20] was “Compound metabolized” in each case.
